Experimental data taken from US9783519B2, “Palladium/silver co-catalyzed tandem reactions synthesis of phenylacetophenone derivatives by oxabenzonorbornadienes with terminal alkynes and their anti-tumor or anti-cancer activities” (Hong Kong Baptist University, priority 2015, dated 2017).
pIC50: −log10 of the molar value. Where two headings read alike, the source gives them in different places.

Key:
[1] = test system: KYSE-150 (human oesophagus carcinoma); assay: MTT cytotoxicity assay, KYSE-150; assay type: cell-based; settings: 48 hrs treatment
Experimental: (§1) Cytotoxic activities of all compounds were evaluated by MTT assay using KYSE-150 (human oesophagus carcinoma), MKN-45 (human gastric aednocarcinoma), DLD-1 (human colorectal carcinoma cell line), Hep G2 (human hepatocellular carcinoma). […] 3ag, 3al, 3an, 3ea and 3ha also have the same inhibitory effect on different cell lines with IC50 value lower than 10 μM. Thus, except 3ac, 3ad, 3ae, 3ah, and 3ab, the other compounds all exert definitely anti-cancer effect.
(§2) In this study, all compounds were dissolved in dimethyl sulfoxide (DMSO) to make stock solutions and further diluted in culture medium for this experiment. Human cancer cell lines, including one gastric adenocarcinoma cell line (MKN-45), one colon carcinoma cell line (DLD-1), one esophageal carcinoma cell line (KYSE-150) and one hepatocellular carcinoma cell line (HepG2) were cultured in RPMI 1640 or DMEM medium, containing 10% fetal bovine serum and 1% antibiotics (Penicillin and strep). The cell lines were cultured at 37° C. in a humidified environment containing 5% CO2. To determine the effects of the compounds on cell viability, a standard colorimetric 3-(4,5-dimethylthiazol-2-yl)-2,5-diphenyltetrazolium bromide (MTT) assay was used to test the cell number. Cells were seeded in a 96-well plate (4×10^3 cells/well) and allowed to attach overnight. After the recovery, cells were treated with 1.56, 3.125, 6.25, 12.5, 25, 50 μM of compounds in culture medium for 48 hrs. Then, 20 μL of MTT (5 mg/mL stock in PBS) per well was added into the medium (200 μL) and incubated for 4 hrs at 37° C. Finally, the culture medium was removed and 200 μL of DMSO were added to dissolve the purple formazan crystals. Absorbance of the solution was measured using microplate reader spectrophotometer (Bio-Rad Laboratories, Inc., Hercules, Calif.) at a wavelength of 570 nm.

[2] = test system: MKN-45 (human gastric aednocarcinoma); assay: MTT cytotoxicity assay, MKN-45; assay type: cell-based; settings: 48 hrs treatment
Experimental: as §1, §2

[3] = test system: Hep G2 (human hepatocellular carcinoma); assay: MTT cytotoxicity assay, Hep G2; assay type: cell-based; settings: HepG2, 48 hrs treatment
Experimental: as §1, §2

[4] = test system: DLD-1 (human colorectal carcinoma cell line); assay: MTT cytotoxicity assay, DLD-1; assay type: cell-based; settings: 48 hrs treatment
Experimental: as §1, §2

KYSE-150 cells [5] = assay: Wound healing assay; assay type: cell-based, human; settings: 48 h
Experimental: Original magnification, 5×.
Further, wound-healing assay was used to test whether those novel compounds could affect cell motility.
A wound-healing assay was performed as follows: cells were seeded in 12 wells plate at 50% confluence in completed medium. After 24 hrs seeding, the monolayer was wounded by scoring with a sterile plastic tip (1 mL), then washed several times with medium to remove cell debris and then incubated in conditioned medium in the absence or presence of tested compounds for various periods of time up to 48 h. […] Cell migration into the wound surface was monitored by Olympus IX71 microscopy and digitally photographed.

KYSE-150 cells [6] = assay: Wound healing assay; assay type: cell-based, human
[7] = test system: KYSE-150, MKN-45, DLD-1, Hep G2; assay: MTT cytotoxicity assay, summary over the test cell lines; assay type: cell-based; settings: Homo sapiens, summary of Table 6
Experimental: as §1, §2

[8] = all test cell lines, read-out: IC50, cell growth-inhibiting effect against all test cell lines (below or near)
[9] = on different (not all) cell lines, read-out: IC50, inhibitory effect on different cell lines

| SMILES | melting point [°C] | pIC50 [1] | pIC50 [2] | pIC50 [3] | pIC50 [4] | cell migration into the wound (KYSE-150 cells [5]; 10 μM) | viability of KYSE-150 cells compared to controls (KYSE-150 cells [6]; 10 μM) | pIC50 [7, 8] | pIC50 [7, 9] | cell migration into the wound (KYSE-150 cells [5]; 5 μM) | viability of KYSE-150 cells compared to controls (KYSE-150 cells [6]; 5 μM) |
| --- | --- | --- | --- | --- | --- | --- | --- | --- | --- | --- | --- |
| COc1ccc(C(=O)Cc2ccc3ccccc3c2)cc1 [Compound 3ab, 1-(4-methoxyphenyl)-2-(naphthalen-2-yl) ethanone] | 125 to 127 | 5.28 | 5.00 | 5.12 | 5.10 | did not migrate into the wound | did not alter the viability | ~5.00 | – | – | – |
| COc1ccccc1C(=O)Cc1ccc2ccccc2c1 [Compound 3ac, 1-(2-methoxyphenyl)-2-(naphthalen-2-yl) ethanone] | 100 to 102 | < 4.30 | < 4.30 | < 4.30 | < 4.30 | – | – | – | – | – | – |
| COc1cc(OC)cc(C(=O)Cc2ccc3ccccc3c2)c1 [Compound 3ae, 1-(3,5-dimethoxyphenyl)-2-(naphthalen-2-yl) ethanone] | 70 to 71 | < 4.30 | < 4.30 | 4.37 | < 4.30 | – | – | – | – | – | – |
| O=C(Cc1ccc2ccccc2c1)c1ccc(F)cc1 [Compound 3af, 1-(4-fluorophenyl)-2-(naphthalen-2-yl) ethanone] | 145 to 147 | 5.59 | 5.39 | 5.37 | 5.28 | – | – | ~5.00 | – | – | – |
| O=C(Cc1ccc2ccccc2c1)c1ccc(Oc2ccccc2)cc1 [Compound 3ag, 2-(naphthalen-2-yl)-1-(4-phenoxyphenyl) ethanone] | 139 to 141 | 5.92 | < 4.30 | 5.32 | 5.31 | – | – | – | > 5.00 | – | – |
| O=C(Cc1ccc2ccccc2c1)c1ccc(OC(F)(F)F)cc1 [Compound 3ah, 2-(naphthalen-2-yl)-1-(4-(trifluoromethoxy)phenyl) ethanone] | 153 to 154 | < 4.30 | < 4.30 | < 4.30 | < 4.30 | – | – | – | – | – | – |
| O=C(Cc1ccc2ccccc2c1)c1ccc(Br)cc1 [Compound 3ai, 1-(4-bromophenyl)-2-(naphthalen-2-yl) ethanone] | 157 to 159 | 5.69 | 5.35 | 5.88 | 5.48 | – | – | ~5.00 | – | – | – |
| Cc1ccc(C(=O)Cc2ccc3ccccc3c2)cc1 [Compound 3aj, 2-(naphthalen-2-yl)-1-(p-tolyl) ethanone] | 144 to 146 | 4.74 | 4.92 | < 4.30 | < 4.30 | – | – | – | – | – | – |
| N#Cc1ccc(C(=O)Cc2ccc3ccccc3c2)cc1 [Compound 3am, 4-(2-(naphthalen-2-yl)acetyl) benzonitrile] | 152 to 154 | 4.48 | < 4.30 | < 4.30 | < 4.30 | – | – | – | – | – | – |
| Cc1ccc(C)c2cc(CC(=O)c3ccccc3)ccc12 [Compound 3ca, 2-(5,8-dimethylnaphthalen-2-yl)-1-phenylethanone] | 123 to 124 | 4.72 | < 4.30 | < 4.30 | < 4.30 | – | – | – | – | – | – |
| C(#Cc1ccc2cc3c(cc2c1)OCCO3)c1ccccc1 [Compound 3ga, 7-(phenylethynyl)-2,3-dihydronaphtho [2,3-b][1,4] dioxine] | 130 to 132 | 4.61 | 4.45 | 4.35 | 4.71 | did not migrate into the wound | did not alter the viability | – | – | – | – |
| C(#Cc1ccc2cc3c(cc2c1)OCO3)c1ccccc1 [Compound 3ha, 6-(phenylethynyl) naphtho [2,3-d][1,3] dioxole] | 154 to 155 | 5.45 | 4.68 | 6.19 | 6.26 | – | – | – | > 5.00 | – | – |

Further lines, with some results ahead:

| melting point [°C] | SMILES | pIC50 [1] | pIC50 [2] | pIC50 [3] | pIC50 [4] | cell migration into the wound (KYSE-150 cells [5]; 10 μM) | viability of KYSE-150 cells compared to controls (KYSE-150 cells [6]; 10 μM) | pIC50 [7, 8] | pIC50 [7, 9] | cell migration into the wound (KYSE-150 cells [5]; 5 μM) | viability of KYSE-150 cells compared to controls (KYSE-150 cells [6]; 5 μM) |
| --- | --- | --- | --- | --- | --- | --- | --- | --- | --- | --- | --- |
| 122 to 124 | O=C(Cc1ccc2ccccc2c1)c1ccccc1 [Compound 3aa, 2-(naphthalen-2-yl)-1-phenylethanone] | 4.96 | 4.81 | 4.68 | 4.91 | did not migrate into the wound | did not alter the viability | – | – | – | – |
| 102 to 103 | COc1cccc(C(=O)Cc2ccc3ccccc3c2)c1 [Compound 3ad, 1-(3-methoxyphenyl)-2-(naphthalen-2-yl) ethanone] | < 4.30 | < 4.30 | < 4.30 | < 4.30 | – | – | – | – | – | – |
| 97 to 98 | O=C(Cc1ccc2ccccc2c1)c1ccc(CO)cc1 [Compound 3ak, 1-(4-(hydroxymethyl)phenyl)-2-(naphthalen-2-yl) ethanone] | 4.50 | < 4.30 | < 4.30 | 4.32 | – | – | – | – | – | – |
| 179 to 181 | O=C(Cc1ccc2ccccc2c1)c1ccc(C(F)(F)F)cc1 [Compound 3al, 2-(naphthalen-2-yl)-1-(4-(trifluoromethyl)phenyl) ethanone] | 5.32 | < 4.30 | 4.52 | 4.43 | – | – | – | > 5.00 | – | – |
| 129 to 130 | [2H]C(C(=O)c1ccccc1)c1ccc2ccccc2c1 (stereo not drawn) [Compound 3an, 2-(naphthalen-2-yl)-1-phenylethanone-2-D] | 5.13 | 4.37 | 4.66 | < 4.30 | did not migrate into the wound | did not alter the viability | – | > 5.00 | – | – |
| 145 to 146 | COc1ccc(OC)c2cc(CC(=O)c3ccccc3)ccc12 [Compound 3ba, 2-(5,8-dimethoxynaphthalen-2-yl)-1-phenylethanone] | < 4.30 | < 4.30 | < 4.30 | < 4.30 | – | – | – | – | – | – |
| 142 to 144 | Cc1cc2ccc(CC(=O)c3ccccc3)cc2cc1C [Compound 3da, 2-(6,7-dimethylnaphthalen-2-yl)-1-phenylethanone] | 5.11 | 5.43 | < 4.30 | 6.11 | – | – | – | – | did not migrate into the wound | did not alter the viability |
| 152 to 154 | O=C(Cc1ccc2cc(Br)c(Br)cc2c1)c1ccccc1 [Compound 3ea, 2-(6,7-dibromonaphthalen-2-yl)-1-phenylethanone] | 5.62 | 4.92 | 4.79 | 5.57 | did not migrate into the wound | did not alter the viability | – | > 5.00 | – | – |
